The source made the active and inactive calls. The rule behind the calls is not given here.
Columns and labels:
Mus musculus [1] = assay: Neurotoxicity in Kunming mouse assessed as motor impairment at 300 mg/kg, ip after 4 hrs by standardized rotarod test; type: toxicity, organism-based; design: dose 300 mg/kg, route intraperitoneal; details: in vivo
Mus musculus [2] = assay: Anticonvulsant activity in Kunming mouse assessed as protection against maximal electroshock-induced seizures measured as abolition of hind limb tonic extension spasm at 300 mg/kg, ip after 4 hrs; type: functional, organism-based; design: dose 300 mg/kg; details: Hindlimb
Mus musculus [3] = assay: Neurotoxicity in Kunming mouse assessed as motor impairment at 300 mg/kg, ip after 0.5 hrs by standardized rotarod test; type: toxicity, organism-based; design: dose 300 mg/kg, route intraperitoneal; details: in vivo
Mus musculus [4] = assay: Anticonvulsant activity in Kunming mouse assessed as protection against subcutaneous pentylenetetrazole-induced seizures at 300 mg/kg, ip after 4 hrs; type: functional, organism-based; design: dose 300 mg/kg
Mus musculus [5] = assay: Anticonvulsant activity in Kunming mouse assessed as protection against subcutaneous pentylenetetrazole-induced seizures at 300 mg/kg, ip after 0.5 hrs; type: functional, organism-based; design: dose 300 mg/kg
Mus musculus [6] = assay: Anticonvulsant activity in Kunming mouse assessed as protection against maximal electroshock-induced seizures measured as abolition of hind limb tonic extension spasm at 300 mg/kg, ip after 0.5 hrs; type: functional, organism-based; design: dose 300 mg/kg; details: Hindlimb
Mus musculus [7] = assay: Anticonvulsant activity in Kunming mouse assessed as protection against maximal electroshock-induced seizures measured as abolition of hind limb tonic extension spasm at 100 mg/kg, ip after 4 hrs; type: functional, organism-based; design: dose 100 mg/kg; details: Hindlimb
Mus musculus [8] = assay: Anticonvulsant activity in Kunming mouse assessed as protection against maximal electroshock-induced seizures measured as abolition of hind limb tonic extension spasm at 100 mg/kg, ip after 0.5 hrs; type: functional, organism-based; design: dose 100 mg/kg; details: Hindlimb
Mus musculus [9] = assay: Anticonvulsant activity in Kunming mouse assessed as protection against subcutaneous pentylenetetrazole-induced seizures at 100 mg/kg, ip after 0.5 hrs; type: functional, organism-based; design: dose 100 mg/kg
Mus musculus [10] = assay: Neurotoxicity in Kunming mouse assessed as motor impairment at 100 mg/kg, ip after 0.5 hrs by standardized rotarod test; type: toxicity, organism-based; design: dose 100 mg/kg, route intraperitoneal; details: in vivo
Mus musculus [11] = assay: Anticonvulsant activity in ip dosed Kunming mouse assessed as protection against maximal electroshock-induced seizures measured as abolition of hind limb tonic extension spasm after 0.5 hrs; type: functional; details: Hindlimb
[12] = Neurotoxicity in ip dosed Kunming mouse assessed as motor impairment after 4 hrs by standardized rotarod test; type: toxicity, organism-based; details: in vivo
Mus musculus [13] = assay: Anticonvulsant activity in Kunming mouse assessed as protection against maximal electroshock-induced seizures measured as abolition of hind limb tonic extension spasm at 30 mg/kg, ip after 0.5 hrs; type: functional, organism-based; design: dose 30 mg/kg; details: Hindlimb
Mus musculus [14] = assay: Protective index, ratio of TD50 for neurotoxicity in ip dosed Kunming mouse to ED50 for protection against maximal electroshock-induced seizure in ip dosed Kunming mouse; type: functional
Mus musculus [15] = assay: Neurotoxicity in Kunming mouse assessed as motor impairment at 100 mg/kg, ip after 4 hrs by standardized rotarod test; type: toxicity, organism-based; design: dose 100 mg/kg, route intraperitoneal; details: in vivo
Mus musculus [16] = assay: Anticonvulsant activity in Kunming mouse assessed as protection against maximal electroshock-induced seizures measured as abolition of hind limb tonic extension spasm at 30 mg/kg, ip after 4 hrs; type: functional, organism-based; design: dose 30 mg/kg; details: Hindlimb

SMILES | Activity (Mus musculus [1]) | Activity (Mus musculus [2]) | Activity (Mus musculus [3]) | Activity (Mus musculus [4]) | Activity (Mus musculus [5]) | Activity (Mus musculus [6]) | Activity (Mus musculus [7]) | Activity (Mus musculus [8]) | Activity (Mus musculus [9]) | Activity (Mus musculus [10]) | ED50 (Mus musculus [11]) [mg/kg] | TD50 at 4 h [12] [mg/kg] | Activity (Mus musculus [13]) | Ratio TD50/ED50 (Mus musculus [14]) | Activity (Mus musculus [15]) | Activity (Mus musculus [16])
CCOC(=O)C1(NC(=O)NCCNS(=O)(=O)c2c(C(C)C)cc(C(C)C)cc2C(C)C)CC1(C)C (racemic) | Non-toxic | inactive | Non-toxic | inactive | inactive | Active |  |  |  |  |  |  |  |  |  | 
CCOC(=O)C1(NC(=O)NCCNS(=O)(=O)c2ccc(F)cc2)CC1(C)C (racemic) | Non-toxic |  | Non-toxic | inactive | inactive |  | Active | Active |  |  |  |  |  |  |  | 
CCOC(=O)C1(NC(=O)NCCNS(=O)(=O)N(C)C)CC1(C)C (racemic) | Non-toxic | inactive | Non-toxic | inactive | inactive | inactive |  |  |  |  |  |  |  |  |  | 
CC(C)c1cc(C(C)C)c(S(=O)(=O)NCCN2C(=O)NC3(CC3(C)C)C2=O)c(C(C)C)c1 (racemic) | Non-toxic | Active | Non-toxic | inactive | inactive |  |  | Active |  |  |  |  |  |  |  | 
CCOC(=O)C1(NC(=O)NCCNS(=O)(=O)c2ccc([N+](=O)[O-])cc2)CC1(C)C (racemic) | Non-toxic | inactive | Non-toxic | inactive | inactive | inactive |  |  |  |  |  |  |  |  |  | 
CCC1(C)CC(=O)NC1=O (configuration not stated) [ETHOSUXIMIDE] | Non-toxic | inactive | Non-toxic | Active |  | inactive |  |  | Active |  |  |  |  |  |  | 
CC1(C)CC12NC(=O)N(CCNS(=O)(=O)c1cccs1)C2=O (racemic) | Toxic | Active |  | inactive | inactive |  |  | Active |  | Toxic |  |  |  |  |  | 
CCCCS(=O)(=O)NCCNC(=O)NC1(C(=O)OCC)CC1(C)C (racemic) | Non-toxic | inactive | Non-toxic | inactive | inactive |  |  | Active |  |  |  |  |  |  |  | 
CCOC(=O)C1(NC(=O)NCCNS(C)(=O)=O)CC1(C)C (racemic) | Non-toxic | inactive | Non-toxic | inactive | inactive | inactive |  |  |  |  |  |  |  |  |  | 
CCCCS(=O)(=O)NCCN1C(=O)NC2(CC2(C)C)C1=O (racemic) | Non-toxic |  | Non-toxic | inactive | inactive |  | Active | Active |  |  |  |  |  |  |  | 
CC1(C)CC12NC(=O)N(CCNS(C)(=O)=O)C2=O (racemic) | Non-toxic | inactive | Non-toxic | inactive | inactive | inactive |  |  |  |  |  |  |  |  |  | 
CC1(C)CC12NC(=O)N(CCNS(=O)(=O)c1ccc([N+](=O)[O-])cc1)C2=O (racemic) | Non-toxic | inactive | Non-toxic | inactive | inactive | Active |  |  |  |  |  |  |  |  |  | 
CN(C)S(=O)(=O)NCCN1C(=O)NC2(CC2(C)C)C1=O (racemic) | Non-toxic | Active | Non-toxic | inactive | inactive | inactive |  |  |  |  |  |  |  |  |  | 
Cc1ccc(S(=O)(=O)NCCN2C(=O)NC3(CC3(C)C)C2=O)cc1 (racemic) | Non-toxic |  | Toxic | inactive | Active |  | Active |  |  |  | 40.6 | 488 | Active | 12 |  | 
CCOC(=O)C1(NC(=O)NCCNS(=O)(=O)c2cccc([N+](=O)[O-])c2)CC1(C)C (racemic) | Non-toxic | inactive | Non-toxic | inactive | inactive | inactive |  |  |  |  |  |  |  |  |  | 
CCOC(=O)C1(NC(=O)NCCNS(=O)(=O)c2ccc(C)cc2)CC1(C)C (racemic) | Non-toxic | Active | Non-toxic | inactive | inactive |  |  | Active |  |  |  |  |  |  |  | 
CC1(C)CC12NC(=O)N(CCNS(=O)(=O)c1cccc([N+](=O)[O-])c1)C2=O (racemic) | Non-toxic | inactive | Toxic | inactive | inactive |  |  | Active |  |  |  |  |  |  |  | 
O=C1NC(=O)C(c2ccccc2)(c2ccccc2)N1 [PHENYTOIN] |  |  |  | inactive | inactive |  |  |  |  | Toxic | 9.2 |  | Active |  | Toxic | Active
CC1(C)CC12NC(=O)N(CCNS(=O)(=O)c1ccc(F)cc1)C2=O (racemic) | Non-toxic |  | Non-toxic | inactive | Active |  |  |  |  |  | 28.1 | 561 | Active | 20 |  | Active
CCOC(=O)C1(NC(=O)NCCNS(=O)(=O)c2cccs2)CC1(C)C (racemic) | Non-toxic | inactive | Toxic | inactive | inactive | Active |  |  |  |  |  |  |  |  |  | 
